# From patent US20240139210A1, “TREATMENT OF NF-KB-MEDIATED DISEASE” (ReveraGen BioPharma, Inc., priority 2020, published 2024)
# Where two headings read alike, the source gives them in different places.
# Columns and labels:
# participants with DMD = details: CINRG DNHS, deflazacort n = 94, prednisone n = 80; cited from earlier work
# boys with DMD [1] = details: cited from earlier work; for LS Mean change in height percentiles for age: 12-month treatment period, DMD
# [2] = tested on: ambulant boys aged 4 to <7 years with DMD; assay: VBP15-004 bone turnover biomarkers; assay type: in vivo, human; details: Prednisone 0.75 mg (N = 24)
# [3] = tested on: ambulant boys aged 4 to <7 years with DMD; assay: VBP15-004 adverse events; set-up: species or system human; details: male, human, in vivo, 24 weeks
# From the text: (§1) The second period of 24 weeks, where all participants receive vamorolone treatment on either of the two dose levels, will continue to capture additional longer-term safety and tolerability data.
# The study completion rate at 24 weeks was 94% (or 114 of 121 participants).
# Pre-specified AESIs typically for corticosteroids were higher in prednisone-treated subjects than vamorolone-treated subjects after 24 weeks of treatment (Table 10).
# boys with DMD [4] = assay: CINRG 12-month prednisone clinical trial, external comparator; assay type: in vivo, human; details: vamorolone 18-month treatment versus prednisone trial 12-month treatment
# Description: As with the CINRG DNHS comparators, group-matching criteria were prespecified in the iSAP, and 2 independent statisticians carried out the participant matching. […] There was no corresponding 12-month assessment in vamorolone-treated participants. (Assessments of vamorolone-treated trial participants were 0, 3, 6, and 18 months).
# Participants in the corticosteroid-treated CINRG DNHS group were treated for at least 18 months, but the total duration, dose, and regimens varied.
# [5] = tested on: ambulant boys aged 4 to <7 years with DMD; assay: VBP15-004 growth (height Z scores); assay type: in vivo, human; details: prednisone 0.75 mg/kg/day
# From the text: as §1
# [6] = 0.9 mg/kg/day deflazacort (n = 68), 0.75 mg/kg/day prednisone (n = 63)
SMILES,Incidence of physician-reported Cushingoid (participants with DMD) [%],Incidence of physician-reported behavior change (participants with DMD) [%],Incidence of physician-reported weight gain (participants with DMD) [%],Incidence of physician-reported Cushingoid (boys with DMD [1]; [6]) [%],Incidence of physician-reported behavior change (boys with DMD [1]; [6]) [%],Incidence of physician-reported hypertrichosis/hirsutism (boys with DMD [1]; [6]) [%],Incidence of physician-reported weight gain (boys with DMD [1]; [6]) [%],LS Mean change in height percentiles for age (boys with DMD [1]) [percentile],LS Mean change in height percentiles for age (boys with DMD [1]; listed as deflazacort) [percentile],"Osteocalcin, mean (SEM) change at Week 24 [2]","Procollagen 1 N-Terminal Propeptide (P1NP), mean (SEM) change at Week 24 [2]","Type I Collagen C-Telopeptides (CTX), mean (SEM) change at Week 24 [2]","clinically relevant psychiatric events, subjects [3] [%]",incidence of behavior problems [3] [%],"moderate/severe behavior problems, subjects [3] [%]","Mean BMI z-score, LS mean difference (SE), ANCOVA (boys with DMD [4])","Mean height percentile for age, LS mean difference (SE), ANCOVA (boys with DMD [4])",change in height Z scores from baseline to Week 24 [5]
"CC(=O)OCC(=O)[C@@]12N=C(C)O[C@@H]1C[C@H]1[C@@H]3CCC4=CC(=O)C=C[C@]4(C)[C@H]3[C@@H](O)C[C@@]12C [Deflazacort, deflazacort]",72,33,63,60.3,9,35,27.9,−11.4,−11.43,–,–,–,–,–,–,–,–,–
"C[C@]12C=CC(=O)C=C1CC[C@@H]1[C@@H]2C(=O)C[C@@]2(C)[C@H]1CC[C@]2(O)C(=O)CO [Prednisone, prednisone]",–,–,–,–,–,–,–,–,–,−15.2 (2.7) ng/ml,−134 (22) ng/mL,−300 (43) pg/mL,19.4,32.3,22.6,0.066 (0.193),10.37 (3.86) percentile,growth deceleration
